Counter-ions that a name gives are not always drawn. Like-named read-outs stand apart in the source and are kept apart here. Marks after values point to notes of the source that are not given here.
What was measured:
[1] = tested on: GABL; assay: GABL biochallenge test of preserved polymer emulsions (streak plate / RABIT), inoculations passed; assay type: cell-based, Gluconoacetobacter liquefaciens; conditions: for Inoculations Passed: PVOH-stabilized VAE emulsion, <1000 ppm vinyl acetate
Description: GABL Inoculum Preparation
A recently isolated culture of GABL was grown on potato dextrose agar slants by inoculating the agar surface. The potato dextrose agar slants were incubated for 48-72 hours at 25° C. After this incubation period, GABL cells were harvested using quarter strength Ringers solution to wash the GABL colonies off of the agar surface. The washings from each slant were combined into one sterile, Erlenmeyer flask. The number of slants and the amount of quarter strength Ringers solution used to wash off the GABL colonies was adjusted during the procedure to obtain a final microbial viable count in the range of 10^8-10^10 CFU/mL.
Rapid Automated Bacterial Impedance Technique (RABIT): supplied by Microbiology International, manufactured by Don Whitley Scientific, Ltd.
RABIT utilizes the principal of impedance microbiology to detect and assess microbial activity in a given sample. Using the RABIT, microbial metabolism is monitored by measuring the amount of carbon dioxide produced by actively respiring microorganisms. The electrodes in the RABIT test cells are partially covered with alkaline agar containing potassium hydroxide. As inoculated test samples are monitored on the RABIT, carbon dioxide produced from microbial metabolism is absorbed by the alkaline agar resulting in a change in conductivity. Conductivity is monitored with time and the time to reach a pre-specified rate of reduction in conductivity is termed the time to detection (TTD). Therefore, the shorter the TTD, the higher the number of microorganisms present. Failure can be defined as three successive decreases in conductivity equal to or greater than a pre-specified value (−10 microSiemens is recommended by the manufacturer) at any time during the 72 hour RABIT monitoring period. Alternatively, failure can be defined as a pre-specified total change in conductivity.
Biochallenge Test Procedure
Samples (50 g each) of each test emulsion containing a test antimicrobial agent were inoculated with 1.0 mL of the GABL inoculum. After mixing well, the samples were then placed in a 30° C. incubator. After 1, 2, and 6 days of incubation each sample was streak plated onto potato dextrose agar to assess the level of surviving GABL microorganisms. The potato dextrose agar plates were incubated at 25° C. for 48-72 hours before assessing the growth. On the seventh day of incubation, each test emulsion sample was inoculated again with a freshly prepared GABL inoculum, mixed well, then placed back into the incubator. The samples were again streak plated onto potato dextrose agar after incubating for 1, 2, and 6 days since the second inoculation. On the fourteenth day after the test was initiated, the test emulsions were inoculated a third time with another freshly prepared GABL inoculum and then placed back into the incubator. The samples were again streak plated onto potato dextrose agar after 1, 2, 6, and 13 days of incubation since the third inoculation to assess surviving microorganisms. Test failure is defined as a microbial viable count >300 CFU/10 μL observed from the potato dextrose agar streak plate assessments.
Biochallenge Test Procedure Via the RABIT
A small amount of a microbial nutrient was added to each emulsion test sample (50 g) containing a test antimicrobial agent. The resulting samples were then inoculated with 1.0 mL of the GABL inoculum. After mixing well, an aliquot (5 g) of each test sample was placed into separate RABIT indirect conductivity tubes. The indirect conductivity tubes were then placed into the RABIT incubator modules set at 30° C. and the conductivity changes monitored for up to 72 hours. The remainder of each test sample was stored in a 30° C. incubator during the RABIT monitoring period. At the completion of the RABIT monitoring period, the aliquot samples were placed back into their respective sample containers. Each test sample was then re-inoculated with a freshly prepared GABL inoculum. […]

[2] = tested on: mixed bacterial pool; assay type: cell-based; conditions: PVOH-stabilized VAE emulsion Tg 0, <1000 ppm vinyl acetate
Description: The preservative efficacy of several cationic compounds in a poly(vinyl alcohol)-stabilized VAE copolymer emulsion (Tg=0) containing less than 1000 ppm vinyl acetate was assessed according to the following procedure:
Aeromonas hydrophilia, Alcaligenes faecalis, Corynebacterium ammoniagenes, Enterobacter aerogenes, Escherichia coli, Klebsiella pneumoniae, Pseudomonas aeruginosa, Proteus vulgaris, Providencia rettgeri, Pseudomonas stutzeri, Shewanella putrefaciens, Serratia liquefaciens, Acinetobacter baumannii, Burkholderia cepacia, Chryseobacterium meningosepticum, Sphingobacterium spiritivorum, Ralstonia pickettii, and GABL.
Mixed Bacterial Pool Inoculum Preparation
Each bacterial culture was individually grown on nutrient agar slants, except GABL was grown on potato dextrose agar slants, by inoculating the agar surfaces. The nutrient agar slants were incubated for 24-48 hours at 30° C. and the potato dextrose agar slants were incubated for 48-72 hours at 25° C. After this incubation period, the cells were harvested using quarter strength Ringers solution to wash the bacterial colonies off the agar surface. The washings from all of the slants were combined into one sterile, Erlenmeyer flask. The number of slants and the amount of Ringers Solution used to wash off the bacterial colonies is adjusted during the procedure to obtain a final mixed microbial viable count in the range of 10^8-10^10 CFU/mL.
Bacterial Biochallenge Test Procedure
The RABIT procedures were followed as described in Example 1, except the mixed bacterial pool inoculum was used to inoculate the test samples instead of the GABL inoculum.

SMILES: CCCCCCCCCCCCNC(=N)N [DGH, n-dodecylguanidine hydrochloride]
- # of GABL Inoculations Passed ([1]; DGH 100 ppm, emulsion VA/E, Tg 0 °C, H2O2/SFS, PVOH (first such line of Table 2)): 3
- # of GABL Inoculations Passed ([1]; DGH 100 ppm, emulsion VA/E, Tg 0 °C, H2O2/SFS, PVOH (second such line of Table 2)): 2
- # of GABL Inoculations Passed ([1]; DGH 100 ppm, emulsion VA/E, Tg 0 °C, H2O2/SFS, PVOH/nonionic surfactant): 1
- # of GABL Inoculations Passed ([1]; DGH 100 ppm, emulsion VA/E, Tg 4 °C, KPS/SFS, Nonionic surfactant/HEC): 0
- # of GABL Inoculations Passed ([1]; DGH 100 ppm, emulsion VA/E, Tg 14 °C, H2O2/SFS, PVOH): 5
- # of GABL Inoculations Passed ([1]; DGH 100 ppm, emulsion VA/E, Tg 20 °C, H2O2/SFS, PVOH, stopped after 4th inoculation): ≧4^b
- # of GABL Inoculations Passed ([1]; DGH 100 ppm, emulsion VA/E, Tg −5 °C, H2O2/SFS, PVOH/nonionic surfactant): 1
- # of GABL Inoculations Passed ([1]; DGH 100 ppm, emulsion VA/E, Tg −15 °C, H2O2/SFS, PVOH): 2
- # of GABL Inoculations Passed ([1]; DGH 100 ppm, emulsion VA/E/MA/SVS, Tg 5 °C, KPS/SFS, Nonionic surfactant): 0
- # of GABL Inoculations Passed ([1]; DGH 150 ppm, emulsion VA/E, Tg 0 °C, H2O2/SFS, PVOH (first such line of Table 2)): 4
- # of GABL Inoculations Passed ([1]; DGH 150 ppm, emulsion VA/E, Tg 0 °C, H2O2/SFS, PVOH/nonionic surfactant): 2
- # of GABL Inoculations Passed ([1]; DGH 150 ppm, emulsion VA/E, Tg 4 °C, KPS/SFS, Nonionic surfactant/HEC): 0
- # of GABL Inoculations Passed ([1]; DGH 150 ppm, emulsion VA/E, Tg 14 °C, H2O2/SFS, PVOH, stopped after 7th inoculation): ≧7^a
- # of GABL Inoculations Passed ([1]; DGH 150 ppm, emulsion VA/E, Tg 20 °C, H2O2/SFS, PVOH, stopped after 4th inoculation): ≧4^b
- # of GABL Inoculations Passed ([1]; DGH 150 ppm, emulsion VA/E, Tg −5 °C, H2O2/SFS, PVOH/nonionic surfactant): 3
- # of GABL Inoculations Passed ([1]; DGH 150 ppm, emulsion VA/E, Tg −15 °C, H2O2/SFS, PVOH): 5
- # of GABL Inoculations Passed ([1]; DGH 150 ppm, emulsion VA/E/MA/SVS, Tg 5 °C, KPS/SFS, Nonionic surfactant): 0
- # of GABL Inoculations Passed ([1]; DGH 200 ppm, emulsion VA/E, Tg 0 °C, H2O2/SFS, PVOH (first such line of Table 2), stopped after 7th inoculation): ≧7^a
- # of GABL Inoculations Passed ([1]; DGH 200 ppm, emulsion VA/E, Tg 0 °C, H2O2/SFS, PVOH (second such line of Table 2)): 7
- # of GABL Inoculations Passed ([1]; DGH 200 ppm, emulsion VA/E, Tg 0 °C, H2O2/SFS, PVOH/nonionic surfactant): 2
- # of GABL Inoculations Passed ([1]; DGH 200 ppm, emulsion VA/E, Tg 4 °C, KPS/SFS, Nonionic surfactant/HEC): 0
- # of GABL Inoculations Passed ([1]; DGH 200 ppm, emulsion VA/E, Tg 8 °C, KPS/SFS, PVOH): 2
- # of GABL Inoculations Passed ([1]; DGH 200 ppm, emulsion VA/E, Tg 14 °C, H2O2/SFS, PVOH, stopped after 7th inoculation): ≧7^a
- # of GABL Inoculations Passed ([1]; DGH 200 ppm, emulsion VA/E, Tg 20 °C, H2O2/SFS, PVOH, stopped after 4th inoculation): ≧4^b
- # of GABL Inoculations Passed ([1]; DGH 200 ppm, emulsion VA/E, Tg −5 °C, H2O2/SFS, PVOH/nonionic surfactant): 3
- # of GABL Inoculations Passed ([1]; DGH 200 ppm, emulsion VA/E, Tg −15 °C, H2O2/SFS, PVOH, stopped after 7th inoculation): ≧7^a
- # of GABL Inoculations Passed ([1]; DGH 200 ppm, emulsion VA/E/AA, Tg 0 °C, H2O2/SFS, PVOH/nonionic surfactant): 0
- # of GABL Inoculations Passed ([1]; DGH 200 ppm, emulsion VA/E/MA/SVS, Tg 5 °C, KPS/SFS, Nonionic surfactant): 0
- # of GABL Inoculations Passed ([1]; DGH 200 ppm, emulsion VA/E/SVS/NMA, Tg 10 °C, TBHP/sodium erythorbate, Anionic sulfate surfactant): 0
- Inoculations Passed ([1]; Tg 0 °C, biocide dosage 50 ppm active): 1
- Inoculations Passed ([1]; Tg 0 °C, biocide dosage 100 ppm active): 2
- Inoculations Passed ([1]; Tg 0 °C, biocide dosage 200 ppm active): 7
- Inoculations Passed ([2]; active biocide dosage 100 ppm): 2
- Inoculations Passed ([2]; active biocide dosage 200 ppm): 7
